According to patent publication US9926282B2, “Phthalazinones and isoquinolinones as rock inhibitors” (BRISTOL-MYERS SQUIBB COMPANY, priority 2013, dated 2018):

Legend:
[1] = target: ROCK1 (Homo sapiens (Human), UniProt Q13464); experiment: ROCK assay (LABCHIP peptide phosphorylation), ROCK1; format: biochemical; conditions: 5 μM ATP, 1.5 μM peptide substrate; read-out: ROCK1 IC50
[2] = target: ROCK2 (Homo sapiens (Human), UniProt O75116); experiment: ROCK assay (LABCHIP peptide phosphorylation), ROCK2; format: biochemical; conditions: 5 μM ATP, 1.5 μM peptide substrate
Sequence of ROCK2 (O75116 whole entry, species assumed): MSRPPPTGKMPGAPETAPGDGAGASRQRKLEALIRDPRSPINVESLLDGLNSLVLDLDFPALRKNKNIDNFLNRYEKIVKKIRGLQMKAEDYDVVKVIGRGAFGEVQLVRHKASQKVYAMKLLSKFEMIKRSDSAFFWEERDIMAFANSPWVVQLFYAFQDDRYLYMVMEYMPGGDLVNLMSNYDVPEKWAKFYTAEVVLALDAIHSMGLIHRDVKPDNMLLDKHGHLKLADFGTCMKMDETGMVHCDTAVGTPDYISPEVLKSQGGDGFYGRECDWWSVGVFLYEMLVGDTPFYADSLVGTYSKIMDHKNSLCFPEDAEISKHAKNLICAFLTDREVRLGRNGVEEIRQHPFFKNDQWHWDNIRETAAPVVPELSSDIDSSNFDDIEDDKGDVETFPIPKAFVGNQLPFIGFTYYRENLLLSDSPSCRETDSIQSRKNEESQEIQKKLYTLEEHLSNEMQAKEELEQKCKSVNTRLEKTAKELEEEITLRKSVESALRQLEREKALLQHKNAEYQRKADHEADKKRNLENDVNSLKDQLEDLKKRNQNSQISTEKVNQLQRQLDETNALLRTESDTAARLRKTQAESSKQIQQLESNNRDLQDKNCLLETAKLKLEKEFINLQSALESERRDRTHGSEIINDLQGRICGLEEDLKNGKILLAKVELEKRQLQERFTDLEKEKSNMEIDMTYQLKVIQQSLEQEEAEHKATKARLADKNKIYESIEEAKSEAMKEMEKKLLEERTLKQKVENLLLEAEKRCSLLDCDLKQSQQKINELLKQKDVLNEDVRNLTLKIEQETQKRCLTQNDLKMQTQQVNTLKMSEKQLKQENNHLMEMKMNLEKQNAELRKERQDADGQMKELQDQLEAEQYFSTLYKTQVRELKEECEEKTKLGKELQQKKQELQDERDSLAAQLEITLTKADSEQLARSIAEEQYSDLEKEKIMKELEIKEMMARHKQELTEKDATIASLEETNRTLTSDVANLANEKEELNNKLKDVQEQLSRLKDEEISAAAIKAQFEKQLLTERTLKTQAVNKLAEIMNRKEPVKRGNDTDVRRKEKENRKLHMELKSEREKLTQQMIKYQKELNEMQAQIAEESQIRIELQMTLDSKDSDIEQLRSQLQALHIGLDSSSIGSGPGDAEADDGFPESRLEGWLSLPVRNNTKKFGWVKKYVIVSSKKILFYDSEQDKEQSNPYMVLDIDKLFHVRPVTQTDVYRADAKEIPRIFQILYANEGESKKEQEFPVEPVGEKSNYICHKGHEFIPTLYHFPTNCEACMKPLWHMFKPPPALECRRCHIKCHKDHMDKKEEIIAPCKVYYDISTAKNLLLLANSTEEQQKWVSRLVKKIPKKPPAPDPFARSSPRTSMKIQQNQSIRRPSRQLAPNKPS

Sequence of ROCK1 (Q13464 whole entry, species assumed): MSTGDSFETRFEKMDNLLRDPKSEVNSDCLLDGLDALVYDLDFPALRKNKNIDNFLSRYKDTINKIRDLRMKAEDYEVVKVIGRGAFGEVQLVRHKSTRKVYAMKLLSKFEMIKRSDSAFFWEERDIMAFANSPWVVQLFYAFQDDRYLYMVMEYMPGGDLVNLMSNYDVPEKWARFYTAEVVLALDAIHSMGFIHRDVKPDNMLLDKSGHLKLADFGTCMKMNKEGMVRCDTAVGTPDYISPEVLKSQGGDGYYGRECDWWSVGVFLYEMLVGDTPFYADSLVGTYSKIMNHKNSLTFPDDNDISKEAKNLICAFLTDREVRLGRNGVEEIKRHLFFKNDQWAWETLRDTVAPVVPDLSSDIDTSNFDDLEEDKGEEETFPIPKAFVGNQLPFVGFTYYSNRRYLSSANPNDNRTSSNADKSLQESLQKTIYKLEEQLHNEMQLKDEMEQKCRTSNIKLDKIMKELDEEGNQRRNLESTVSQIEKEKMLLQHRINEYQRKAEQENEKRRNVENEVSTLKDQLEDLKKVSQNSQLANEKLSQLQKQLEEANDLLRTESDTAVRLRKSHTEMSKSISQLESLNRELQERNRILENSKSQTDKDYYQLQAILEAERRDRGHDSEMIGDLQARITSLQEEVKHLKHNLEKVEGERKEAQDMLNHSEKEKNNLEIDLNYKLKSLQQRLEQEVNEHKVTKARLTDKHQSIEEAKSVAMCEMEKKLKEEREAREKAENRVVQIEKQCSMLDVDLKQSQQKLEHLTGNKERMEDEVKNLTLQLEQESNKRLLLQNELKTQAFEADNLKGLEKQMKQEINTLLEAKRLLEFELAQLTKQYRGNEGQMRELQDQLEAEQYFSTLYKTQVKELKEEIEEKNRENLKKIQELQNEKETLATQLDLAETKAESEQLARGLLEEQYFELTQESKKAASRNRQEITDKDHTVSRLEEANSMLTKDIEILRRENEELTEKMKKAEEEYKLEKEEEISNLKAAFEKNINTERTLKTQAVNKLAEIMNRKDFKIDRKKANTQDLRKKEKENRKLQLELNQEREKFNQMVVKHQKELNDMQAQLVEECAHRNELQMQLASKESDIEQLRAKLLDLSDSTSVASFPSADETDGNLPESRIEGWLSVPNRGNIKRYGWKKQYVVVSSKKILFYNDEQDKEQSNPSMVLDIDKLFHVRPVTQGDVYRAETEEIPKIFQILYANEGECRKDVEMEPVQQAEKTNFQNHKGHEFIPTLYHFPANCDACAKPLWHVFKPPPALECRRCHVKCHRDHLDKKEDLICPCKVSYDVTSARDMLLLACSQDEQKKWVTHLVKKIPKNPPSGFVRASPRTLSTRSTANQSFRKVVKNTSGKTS

SMILES	IC50 [1] [nM]	IC50 [2] [nM]
Cc1cc(NC(=O)c2cnn3cc(OCCN4CCCC4)ccc23)ccc1-c1n[nH]c(=O)c2ccccc12 [Example 325, N-[3-methyl-4-(4-oxo-3,4-dihydrophthalazin-1-yl)phenyl]-6-[2-(pyrrolidin-1-yl)ethoxy] pyrazolo[1,5-a]pyridine-3-carboxamide]	101 to 1000	0.1 to 100
COc1cc(NC(=O)c2nn(CC(C)(C)O)c3ccccc23)ccc1-c1n[nH]c(=O)c2ccccc12 [Example 345, 1-(2-Hydroxy-2-methylpropyl)-N-(3-methoxy-4-(4-oxo-3,4-dihydrophthalazin-1-yl)phenyl)-1H-indazole-3-carboxamide]	101 to 1000	0.1 to 100
O=C(Nc1ccc(-c2n[nH]c(=O)c3ccccc23)c(CO)c1)c1cnn2ccccc12 [Example 362, N-(3-(Hydroxymethyl)-4-(4-oxo-3,4-dihydrophthalazin-1-yl)phenyl)pyrazolo[1,5-a]pyridine-3-carboxamide]	1000 to 50000	0.1 to 100
Cc1nn(-c2cccc(Cl)c2Cl)nc1C(=O)Nc1ccc(-c2n[nH]c(=O)c3ccccc23)cc1 [Example 238, 2-(2,3-dichlorophenyl)-5-methyl-N-[4-(4-oxo-3,4-dihydrophthalazin-1-yl)phenyl]-2H-1,2,3-triazole-4-carboxamide]	101 to 1000	0.1 to 100
O=C(Cc1ccc(-c2n[nH]c(=O)c3ccccc23)cc1)Nc1nc2ccccc2[nH]1 [Example 9, N-(1H-1,3-benzodiazol-2-yl)-2-[4-(4-oxo-3,4-dihydrophthalazin-1-yl)phenyl]acetamide]	1000 to 50000	0.1 to 100
O=C(Nc1ccc(-c2n[nH]c(=O)c3ccccc23)cc1)c1nn(Cc2ccccn2)c2ccccc12 [Example 160, N-[4-(4-oxo-3,4-dihydrophthalazin-1-yl)phenyl]-1-(pyridin-2-ylmethyl)-1H-indazole-3-carboxamide]	0.1 to 100	0.1 to 100
CC1(Cn2nc(C(=O)Nc3ccc(-c4n[nH]c(=O)c5ccccc45)c(Cl)c3)c3ccccc32)COC1 [Example 320, N-[3-chloro-4-(4-oxo-3,4-dihydrophthalazin-1-yl)phenyl]-1-[(3-methyloxetan-3-yl)methyl]-1H-indazole-3-carboxamide]	0.1 to 100	0.1 to 100
O=C(Nc1ccc(-c2n[nH]c(=O)c3ccccc23)c(CO)c1)c1nn(CC2CCOC2)c2ccc(F)cc12 (stereo not shown) [Example 366, 5-Fluoro-N-(3-(hydroxymethyl)-4-(4-oxo-3,4-dihydrophthalazin-1-yl)phenyl)-1-((tetrahydrofuran-3-yl)methyl)-1H-indazole-3-carboxamide]	101 to 1000	0.1 to 100
O=C(Nc1ccc(-c2n[nH]c(=O)c3ccccc23)cc1)c1cn(C2CCNCC2)nn1 [Example 372, N-(4-(4-Oxo-3,4-dihydrophthalazin-1-yl)phenyl)-1-(piperidin-4-yl)-1H-1,2,3-triazole-4-carboxamide]	101 to 1000	101 to 1000
CC(C)OC(=O)N1CCC(Cn2nc(C(=O)Nc3ccc(-c4n[nH]c(=O)c5ccccc45)cc3)c3ccccc32)CC1 [Example 349, Propan-2-yl 4-[(3-{[4-(4-oxo-3,4-dihydrophthalazin-1-yl)phenyl]carbamoyl}-1H-indazol-1-yl)methyl]piperidine-1-carboxylate]	0.1 to 100	0.1 to 100
O=C(Nc1ccc(-c2n[nH]c(=O)c3ccccc23)cc1)c1nn(CC2CCOC2)c2cc(F)ccc12 (stereo not shown) [Example 174, 6-fluoro-N-[4-(4-oxo-3,4-dihydrophthalazin-1-yl)phenyl]-1-(oxolan-3-ylmethyl)-1H-indazole-3-carboxamide]	0.1 to 100	0.1 to 100
O=C(Nc1ccc(-c2n[nH]c(=O)c3ccccc23)cc1)c1ncc(-c2ccncc2)s1 [Example 47, N-[4-(4-oxo-3,4-dihydrophthalazin-1-yl)phenyl]-5-(pyridin-4-yl)-1,3-thiazole-2-carboxamide]	101 to 1000	0.1 to 100
O=C(Nc1ccc(-c2n[nH]c(=O)c3ccccc23)c(Cl)c1)c1nn(CC2CCOC2)c2ccccc12 (stereo not shown) [Example 319, N-[3-chloro-4-(4-oxo-3,4-dihydrophthalazin-1-yl)phenyl]-1-(oxolan-3-ylmethyl)-1H-indazole-3-carboxamide]	0.1 to 100	0.1 to 100
O=C(Nc1ccc(-c2n[nH]c(=O)c3ccccc23)cc1)c1ncn(-c2ccccn2)n1 [Example 240, N-[4-(4-oxo-3,4-dihydrophthalazin-1-yl)phenyl]-1-(pyridin-2-yl)-1H-1,2,4-triazole-3-carboxamide]	101 to 1000	0.1 to 100
Cc1cc(C(=O)Nc2ccc(-c3n[nH]c(=O)c4ccccc34)cc2)nn1C [Example 205, 1,5-dimethyl-N-[4-(4-oxo-3,4-dihydrophthalazin-1-yl)phenyl]-1H-pyrazole-3-carboxamide]	101 to 1000	0.1 to 100
O=C(Nc1ccc(-c2c[nH]c(=O)c3ccccc23)cc1)c1ccc(N2CCCC2)cc1 [Example 251, N-(4-(1-Oxo-1,2-dihydroisoquinolin-4-yl)phenyl)-4-(pyrrolidin-1-yl)benzamide]	101 to 1000	0.1 to 100

Next, values leading:

IC50 [1] [nM]	IC50 [2] [nM]	SMILES
0.1 to 100	0.1 to 100	O=c1[nH]nc(-c2ccc(Nc3nc4ccccc4o3)cc2)c2ccccc12 [Example 75, 4-(4-(Benzo[d]oxazol-2-ylamino)phenyl)phthalazin-1(2H)-one]
0.1 to 100	0.1 to 100	O=C(Nc1ccc(-c2n[nH]c(=O)c3ccccc23)cc1)c1cnn(-c2ccccc2Cl)c1 [Example 220, 1-(2-chlorophenyl)-N-[4-(4-oxo-3,4-dihydrophthalazin-1-yl)phenyl]-1H-pyrazole-4-carboxamide]
101 to 1000	0.1 to 100	O=C(c1ccc2c(c1)N(C(=O)Cc1ccc(-c3n[nH]c(=O)c4ccccc34)cc1)CC2)N1CCC(O)CC1 [Example 295, 4-(4-{2-[6-(4-hydroxypiperidine-1-carbonyl)-2,3-dihydro-1H-indol-1-yl]-2-oxoethyl}phenyl)-1,2-dihydrophthalazin-1-one]
0.1 to 100	0.1 to 100	Cc1noc(-c2ccc(C(C)(C)O)cc2)c1C(=O)Nc1ccc(-c2n[nH]c(=O)c3ccccc23)cc1 [Example 223, 5-[4-(2-hydroxypropan-2-yl)phenyl]-3-methyl-N-[4-(4-oxo-3,4-dihydrophthalazin-1-yl)phenyl]-1,2-oxazole-4-carboxamide]
101 to 1000	0.1 to 100	CN1CCC(Oc2ccc3c(c2)N(C(=O)Cc2ccc(-c4n[nH]c(=O)c5ccccc45)cc2)CC3)CC1 [Example 282, 4-[4-(2-{6-[(1-methylpiperidin-4-yl)oxy]-2,3-dihydro-1H-indol-1-yl}-2-oxoethyl)phenyl]-1,2-dihydrophthalazin-1-one]
101 to 1000	101 to 1000	Cc1ccc(N2CC(C(=O)Nc3ccc(-c4n[nH]c(=O)c5ccccc45)cc3)CC2=O)cc1 (stereo not shown) [Example 210, 1-(4-methylphenyl)-5-oxo-N-[4-(4-oxo-3,4-dihydrophthalazin-1-yl)phenyl]pyrrolidine-3-carboxamide]
101 to 1000	0.1 to 100	CC1(C)CN(C(=O)Cc2ccc(-c3n[nH]c(=O)c4ccccc34)cc2)c2ccccc21 [Example 39, 4-{4-[2-(3,3-dimethyl-2,3-dihydro-1H-indol-1-yl)-2-oxoethyl]phenyl}-1,2-dihydrophthalazin-1-one]
101 to 1000	101 to 1000	CN1CC(=O)c2c(C(=O)Nc3ccc(-c4n[nH]c(=O)c5ccccc45)cc3)coc2C1 [Example 111, 6-methyl-4-oxo-N-[4-(4-oxo-3,4-dihydrophthalazin-1-yl)phenyl]-4H,5H,6H,7H-furo[2,3-c]pyridine-3-carboxamide]
0.1 to 100	0.1 to 100	O=C(Cc1ccc(-c2n[nH]c(=O)c3ccccc23)cc1)N1CCc2ccc(OCc3cccnc3)cc21 [Example 270, 4-(4-{2-oxo-2-[6-(pyridin-3-ylmethoxy)-2,3-dihydro-1H-indol-1-yl]ethyl}phenyl)-1,2-dihydrophthalazin-1-one]
0.1 to 100	0.1 to 100	CN(C)c1cccc(C(=O)Nc2ccc(-c3n[nH]c(=O)c4ccccc34)cc2)c1 [Example 66, 3-(dimethylamino)-N-[4-(4-oxo-3,4-dihydrophthalazin-1-yl)phenyl]benzamide]
0.1 to 100	0.1 to 100	O=C(Nc1ccc(-c2n[nH]c(=O)c3ccccc23)cc1)c1ccc(N2CCCCC2)cc1 [Example 61]
0.1 to 100	0.1 to 100	O=C(Nc1ccc(-c2n[nH]c(=O)c3ccccc23)cc1)c1cnn2ccc(OCCN3CCCC3)cc12 [Example 183, N-[4-(4-oxo-3,4-dihydrophthalazin-1-yl)phenyl]-5-[2-(pyrrolidin-1-yl)ethoxy]pyrazolo[1,5-a]pyridine-3-carboxamide]
0.1 to 100	0.1 to 100	COc1ccc2c(=O)[nH]cc(-c3ccc(CC(=O)N4CCc5ccc(OCC(C)(C)O)cc54)cc3)c2c1 [Example 289, 4-(4-(2-(6-(2-Hydroxy-2-methylpropoxy)indolin-1-yl)-2-oxoethyl)phenyl)-6-methoxyisoquinolin-1(2H)-one]
0.1 to 100	0.1 to 100	Cc1nc2ccccn2c1C(=O)Nc1ccc(-c2n[nH]c(=O)c3ccccc23)cc1 [Example 95, 2-methyl-N-[4-(4-oxo-3,4-dihydrophthalazin-1-yl)phenyl]imidazo[1,2-a]pyridine-3-carboxamide]
0.1 to 100	0.1 to 100	O=c1[nH]nc(-c2ccc(Nc3nncc4ccccc34)cc2)c2ccccc12 [Example 85, 4-(4-(Phthalazin-1-ylamino)phenyl)phthalazin-1(2H)-one]
0.1 to 100	0.1 to 100	COc1cccc2[nH]cc(C(=O)Nc3ccc(-c4n[nH]c(=O)c5ccccc45)cc3)c12 [Example 117, 4-methoxy-N-[4-(4-oxo-3,4-dihydrophthalazin-1-yl)phenyl]-1H-indole-3-carboxamide]
